Molecules are shown by their SMILES. Counter-ions that a name gives are not always drawn.

The source of these data is patent publication US6177441A, “Treating red blood cell solutions with anti-viral agents” (Cerus Corporation, priority 1998, dated 2001).

For data set [1], the system named is R17. The data set is classed as cell-based, bacteriophage R17.
Data set [2] concerns red blood cells.
For data set [3], the system named is R17. Description: R17 inactivation by Compound 1 in packed red blood cells (Example 2). Format: cell-based, bacteriophage R17. How it is done: Another experiment was performed to test the inactivation ability of a novel compound, Compound 1. A 1:1000 dilution of R17 (stock titer was 11.9 logs) was prepared in 25 ml packed red blood cells. To each of 5 tubes was added 5 ml of this R17-packed red blood cell solution. Compound 1 was then dissolved in saline to a final concentration of 3 mg/ml. The compound in solution was added to the […] as follows: the first tube, the control tube, received saline only; the second tube received 10 μg/ml of Compound 1 in saline; the third tube received 30 μg/ml of Compound 1 in saline; the forth tube received 100 μg/ml Compound 1 in saline and the final tube received 300 μg/ml of Compound 1 in saline. The tubes were mixed and then incubated at 4° C. overnight. […] Concentrations above 30 μg/ml inactivated approximately 4 logs of R17 with a starting titer of 10 logs of R17.

The subject of data set [4] is red blood cells. As to conditions: mouse, in vivo.
The test system of another data set is cell-free HIV. Nature of the data set: microbe, parasite or virus in culture. The data set is classed as cell-based. As to conditions: Human immunodeficiency virus 1, Erythrocyte, 100 min.
The test system of the next data set is cell-associated HIV. Description: microbe, parasite or virus in culture. The data set is classed as cell-based, HIVIIIB. As to conditions: Human immunodeficiency virus 1, Erythrocyte.
Data set [5] concerns red blood cells. As to conditions: mouse, in vivo. This is another data set of the same source.
In data set [6] the test system is R17. Description: Kinetics of R17 inactivation by QM with NAC quench (Example 3). As to conditions: for Log Titer: NAC/no QM, no NAC/no QM 8.80.
Another data set has as its system red cells. As to conditions: photo treatment; cited from earlier work.
In data set [7] the test system is R17.

As for `O=C(O)CCCc1ccc(N(CCCl)CCCl)cc1` [Chlorambucil, chlorambucil], in the data set on R17 [1], the R17 inactivation is no more than 0.4 logs and the “R17 inactivation (words)” value was “little or no inactivation”. For the same compound, the “IgG binding of red cells” value with red blood cells [2] is reported as “did not alter”.
In the case of `COc1c2occc2c(CN(CCCl)CCCl)c2ccc(=O)oc12` [Compound 1, 5-[N,N-bis(2-chloroethyl)amino]methyl-8-methoxypsoralen hydrochloride], the “R17 inactivation activity” value with R17 [3] (10-300 μg/ml in packed red blood cells) is listed as “showed R17 inactivation activity”. Besides, in the data set on R17 [3] (concentrations above 30 μg/ml, 4° C. overnight, starting titer 10 logs), the R17 inactivated result is “approximately 4 logs”.
As for `CCN(CCCl)CCCNc1c2ccc(Cl)cc2nc2ccc(OC)cc12.Cl.Cl` [ICR-170, N-(2-chloroethyl)-N-ethyl-N'-(6-chloro-2-methoxy-9-acridinyl)-1,3-propanediamine dihydrochloride], in the data set with red blood cells [4], the “% RECOVERY, HIGH” value is on record as 90.4 and the “% RECOVERY, LOW” value came out at 93.1. In the data set on cell-free HIV, this compound yielded a log reduction at 10 µg/mL of 0.6, a log reduction at 20 µg/mL of 1.3, a log reduction at 40 µg/mL of 2.3 and a log reduction at 80 µg/mL of 4. In the data set with cell-associated HIV, this compound registered a log reduction at 10 µg/mL of 0.5, a log reduction at 20 µg/mL of 1.2, a log reduction at 40 µg/mL of 2 and a log reduction at 80 µg/mL of 2. In the data set with red blood cells [5], the “LOSS PER DAY” value turned out to be 2.71% and the RECOVERY is listed as 86.0 ± 6.6.
Regarding `CC(=O)N[C@@H](CS)C(=O)O` [NAC, N-acetyl-cysteine], the “R17 kill by NAC alone” value in the data set on R17 [6] is on record as “does not kill R17”. Besides, in the data set with R17 [6] (NAC added before QM), the “protection against QM inactivation” value is “substantial, but not complete protection against QM inactivation”. Besides, the entries for the “Log Titer” value in the data set with R17 [6] (dilute at end) and with R17 [6] (dilute) were 8.35 and 8.73, respectively. Further, the “quenching of QM activity” value in the data set with R17 [6] (combination of NAC and dilution) is recorded as “almost complete quenching of QM activity”.
For the compound `CN(C)c1ccc2nc3ccc(=[N+](C)C)cc-3sc2c1` [methylene blue], in the data set with red cells, the “ATP of photo treated red cells” value was “loss of ATP”, the “IgG binding of photo treated red cells” value was “binding of autologous immunoglobulin (IgG) to the red cell surface” and the “ion permeability of photo treated red cells” value is listed as “enhanced ion permeability”.
For the compound `CCN(CC)CCCC(C)Nc1c2ccc(Cl)cc2nc2ccc(OC)cc12` (centres unmarked) [quinacrine], the “light-dependent kill of R17” value in the data set with R17 [7] is recorded as “no light-dependent kill”.
